Laboratory results from patent US7709516B2, “Helix 12 directed non-steroidal antiandrogens” (Endorecherche, Inc., priority 2005, dated 2010).
pIC50: −log10 of the molar value. Where two headings read alike, the source gives them in different places.

How the values were obtained:
[1] = system: rat prostate, seminal vesicle, levator ani muscle; experiment: Systemic antiandrogenic activity in orchidectomized immature male rats with DHT implant; type: in vivo; details: for Prostate % inhibition / Lev Ani % inhibition / SV % inhibition: Table 2; for inhibition in vivo at 0.5 mg: Rattus norvegicus, 168 h
[2] = system: Shionogi mouse mammary carcinoma cells; experiment: Androgenic/antiandrogenic activity: inhibition of DHT-stimulated Shionogi cell number; type: cell-based; details: DHT-stimulated Shionogi cell number
Human Androgen Receptor = target: T1, Human Androgen Receptor (Homo sapiens, UniProt P10275); experiment: Androgen receptor binding assay ([3H]R1881, HAP) in cytosol of HEK-293 cells transfected with hAR; details: relative to R1881 = 100, transfected cells
T1 sequence (P10275 1-920): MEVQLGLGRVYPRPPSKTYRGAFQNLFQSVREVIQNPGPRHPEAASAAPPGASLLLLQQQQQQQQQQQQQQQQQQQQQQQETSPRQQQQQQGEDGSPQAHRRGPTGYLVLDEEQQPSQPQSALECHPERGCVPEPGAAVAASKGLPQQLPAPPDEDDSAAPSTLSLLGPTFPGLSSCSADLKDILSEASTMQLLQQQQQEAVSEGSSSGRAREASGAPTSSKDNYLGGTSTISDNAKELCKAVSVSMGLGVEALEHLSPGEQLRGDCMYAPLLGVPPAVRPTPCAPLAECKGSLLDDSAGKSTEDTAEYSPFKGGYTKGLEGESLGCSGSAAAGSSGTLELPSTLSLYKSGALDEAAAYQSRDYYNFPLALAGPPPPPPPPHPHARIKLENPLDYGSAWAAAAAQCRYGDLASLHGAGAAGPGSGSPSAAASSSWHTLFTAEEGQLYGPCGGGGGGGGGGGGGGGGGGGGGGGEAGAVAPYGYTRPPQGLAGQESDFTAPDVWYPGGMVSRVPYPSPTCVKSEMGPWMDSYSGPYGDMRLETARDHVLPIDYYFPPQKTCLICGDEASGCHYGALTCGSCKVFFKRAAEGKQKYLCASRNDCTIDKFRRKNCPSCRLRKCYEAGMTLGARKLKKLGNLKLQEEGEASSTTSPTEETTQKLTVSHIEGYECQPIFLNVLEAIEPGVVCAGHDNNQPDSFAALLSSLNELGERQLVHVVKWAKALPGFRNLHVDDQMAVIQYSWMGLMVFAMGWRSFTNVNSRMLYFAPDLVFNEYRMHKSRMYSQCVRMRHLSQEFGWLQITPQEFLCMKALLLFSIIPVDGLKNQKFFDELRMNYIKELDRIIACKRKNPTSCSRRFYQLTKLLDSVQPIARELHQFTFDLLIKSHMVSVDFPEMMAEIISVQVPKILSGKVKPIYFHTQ

[3] = rat +DHT, s.c. or p.o. (route not marked), 0.5 mg/animal daily 7 days
[4] = rat +DHT, s.c. or p.o. (route not marked), levator ani, 0.5 mg/animal daily 7 days
[5] = rat +DHT, s.c. or p.o. (route not marked), seminal vesicle, 0.5 mg/animal daily 7 days
[6] = Mus musculus, read-out: Shionogi Antiandrogenic Activity IC50, Table 2
[7] = read-out: Lev Ani % inhibition, Table 2, rat +DHT, s.c. or p.o. (route not marked), levator ani, 0.5 mg/animal daily 7 days
[8] = read-out: Prostate % inhibition, Table 2, rat +DHT, s.c. or p.o. (route not marked), 0.5 mg/animal daily 7 days
[9] = read-out: SV % inhibition, Table 2, rat +DHT, s.c. or p.o. (route not marked), seminal vesicle, 0.5 mg/animal daily 7 days
[10] = read-out: Lev Ani % inhibition, Table 1, rat +DHT, s.c. or p.o. (route not marked), levator ani, 0.5 mg/animal daily 7 days
[11] = read-out: Prostate % inhibition, Table 1, rat +DHT, s.c. or p.o. (route not marked in cell), 0.5 mg/animal daily 7 days
[12] = read-out: SV % inhibition, Table 1, rat +DHT, s.c. or p.o. (route not marked), seminal vesicle, 0.5 mg/animal daily 7 days
[13] = Mus musculus, read-out: Shionogi Antiandrogenic Activity IC50, Table 1
[14] = Prostate cell, po, read-out: Lev Ani % inhibition, Table 1, rat +DHT, p.o, levator ani, 0.5 mg/animal daily 7 days
[15] = Prostate cell, po, read-out: SV % inhibition, Table 1, rat +DHT, p.o, seminal vesicle, 0.5 mg/animal daily 7 days
[16] = po, read-out: Prostate % inhibition, Table 1, rat +DHT, p.o, 0.5 mg/animal daily 7 days

| SMILES | pIC50 [2, 6] | Human Androgen Receptor Binding (%) RBA R1881 = 100 (Human Androgen Receptor; Table 2) | inhibition in vivo at 0.5 mg [1, 7] | inhibition in vivo at 0.5 mg [1, 8] | inhibition in vivo at 0.5 mg [1, 9] | inhibition in vivo at 0.5 mg [1, 10] | inhibition in vivo at 0.5 mg [1, 11] | inhibition in vivo at 0.5 mg [1, 12] | pIC50 [2, 13] | Human Androgen Receptor Binding (%) RBA R1881 = 100 (Human Androgen Receptor; Table 1) | further results |
| --- | --- | --- | --- | --- | --- | --- | --- | --- | --- | --- | --- |
| Cc1cc(CN2CCCC2)ccc1OCCC1(O)CCN(c2ccc(C#N)c(Cl)c2)CC1 [EM-7678] | 7.86 | 3.5% |  |  |  |  |  |  |  |  | Prostate % inhibition [1, 3]: 7%; Lev Ani % inhibition [1, 4]: 9%; SV % inhibition [1, 5]: 10% |
| CCC(NC1CCCCC1)c1ccc(COCCN2CCN(c3ccc(C#N)c(C(F)(F)F)c3)CC2)cc1 (stereo not drawn) [EM-7727] | 7.15 | <1.0% | 0% | 0% | 8% |  |  |  |  |  |  |
| Cc1cc(CN2CCCC2)ccc1OCCC1(O)CCN(c2ccc(C#N)c(Cl)c2)CC1 [EM-7735] |  | 9.6% |  |  |  |  |  |  |  |  | Prostate % inhibition [1, 3]: 0%; Lev Ani % inhibition [1, 4]: 29%; SV % inhibition [1, 5]: 23%; pIC50 ([2]; read-out: Shionogi Antiandrogenic Activity IC50, Table 2): 8.10 |
| CCC(c1ccc(OCCC2(O)CCN(c3ccc(C#N)c4ccccc34)CC2)cc1)N1CCCC1 (stereo not drawn) [EM-7738] |  | 10.5% |  |  |  |  |  |  |  |  | inhibition in vivo at 0.5 mg ([1]; read-out: Lev Ani % inhibition): 10%; inhibition in vivo at 0.5 mg ([1]; read-out: Prostate % inhibition): 0%; inhibition in vivo at 0.5 mg ([1]; read-out: SV % inhibition): 16%; pIC50 ([2]; Mus musculus, Table 2, read-out: Shionogi Antiandrogenic Activity IC50): 7.74 |
| Cc1cc(CN2CCCC2)ccc1OCCCN1C(=S)N(c2ccc(C#N)c3ccccc23)C(=O)C1(C)C [EM-7775] |  |  |  |  |  | 10% | 0% | 25% | 7.22 | 13.2% |  |
| Cc1cc(CN2CCCC2C)ccc1OCCC1(O)CCN(c2ccc(C#N)c(Cl)c2)CC1 (stereo not drawn) [EM-7791] | 7.69 | 1.0% | 14% | 0% | 29% |  |  |  |  |  |  |
| CCC(CC)NC(CC)c1ccc(COCCN2CCN(c3ccc(C#N)c(C(F)(F)F)c3)CC2)cc1 (stereo not drawn) [EM-7792] | 7.08 | <1.0% | 7% | 21% | 0% |  |  |  |  |  |  |
| CC1(C)C(=O)N(c2ccc(C#N)c(Cl)c2)C(=S)N1CCCOc1ccc(CNC2CCCC2)cc1 [EM-7819] |  |  |  |  |  | 44% | 54% | 80% | 8.08 | 12.9% |  |
| CN(C)Cc1ccc(OCCCN2C(=S)N(c3ccc(C#N)c(Cl)c3)C(=O)C2(C)C)cc1 [EM-7821] |  |  |  |  |  | 32% | 50% | 75% | 8.28 | 6.1% |  |
| CC(C)NCc1ccc(OCCCN2C(=S)N(c3ccc(C#N)c(Cl)c3)C(=O)C2(C)C)cc1 [EM-7822] |  |  |  |  |  | 60% | 53% | 82% | 8.23 | 4.9% |  |
| CC(C)NCc1ccc(OCCCN2C(=S)N(c3ccc(C#N)c(C(F)(F)F)c3)C(=O)C2(C)C)nc1 [EM-7848] |  |  |  |  |  | 68% | 51% | 86% | 7.94 | 0.5% |  |
| CC(C)NCc1ccc(OCCCN2C(=S)N(c3ccc(C#N)c(C(F)(F)F)c3)C(=O)C2(C)C)c(F)c1 [EM-7918] |  |  |  |  |  | 53% | 44% | 64% | 8.18 | 16.9% |  |
| CC(C)NCc1ccc(OCCCN2C(=S)N(c3ccc(C#N)c(C(F)(F)F)c3)C(=O)C2(C)C)c(Cl)c1 [EM-7919] |  |  |  |  |  | 9% | 28% | 53% | 8.17 | 29.0% |  |
| CC(C)NCc1ccc(OCCCN2C(=S)N(c3ccc(C#N)c(C(F)(F)F)c3)C(=O)C2(C)C)cn1 [EM-7926] |  |  |  |  |  | 14% | 44% | 72% | 8.10 | 1.5% |  |
| CN(C)Cc1ccc(OCCCN2C(=S)N(c3ccc(C#N)c(C(F)(F)F)c3)C(=O)C2(C)C)cn1 [EM-7927] |  |  |  |  |  | 61% | 32% | 55% | 8.16 | 2.4% |  |
| COc1cc(CNC(C)C)ccc1OCCCN1C(=S)N(c2ccc(C#N)c(C(F)(F)F)c2)C(=O)C1(C)C [EM-7930] |  |  |  |  |  | 41% | 47% | 71% | 8.02 | 0.5% |  |
| CC(C)NS(=O)(=O)c1ccc(OCCCN2C(=S)N(c3ccc(C#N)c(C(F)(F)F)c3)C(=O)C2(C)C)cc1 [EM-7957] |  |  |  |  |  | 75% | 44% | 72% | 7.75 | 5.9% |  |
| CCC(c1ccc(OCCC2(O)CCN(c3ccc(C#N)c(C(F)(F)F)c3)CC2)c(C)c1)N1CCCC1 (stereo not drawn) [EM-8003] | 7.65 | 6.4% | 44% | 11% | 35% |  |  |  |  |  |  |
| CCC(CC)NC(CC)c1ccc(OCCC2(O)CCN(c3ccc(C#N)c(C(F)(F)F)c3)CC2)c(C)c1 (stereo not drawn) [EM-8006] | 7.51 | 8.1% | 40% | 14% | 32% |  |  |  |  |  |  |
| CC1(C)C(=O)N(c2ccc(C#N)c(C(F)(F)F)c2)C(=S)N1CCCOc1ccc(S(C)(=O)=O)cc1 [EM-8056] |  |  |  |  |  |  |  |  | 7.92 | 6.7% | inhibition in vivo at 0.5 mg [1, 14]: 80%; inhibition in vivo at 0.5 mg [1, 15]: 91%; inhibition in vivo at 0.5 mg [1, 16]: 49% |
| N#Cc1ccc(N2CCC(O)(CCOc3ccc(-c4cccnc4)c(CN4CCCC4)c3)CC2)cc1C(F)(F)F [EM-8058] | 7.25 | 1.5% | 6% | 0% | 2% |  |  |  |  |  |  |
| N#Cc1ccc(N2CCC(O)(CCOc3cccc(CN4CCCC4)c3)CC2)cc1C(F)(F)F [EM-8059] | 7.16 | 1.0% | 0% | 1% | 21% |  |  |  |  |  |  |
| CC1(C)C(=O)N(c2ccc(C#N)c(C(F)(F)F)c2)C(=S)N1CCCOc1ccc(-n2ccnc2)cc1 [EM-8062] |  |  |  |  |  |  |  |  | 8.18 | 15.6% | inhibition in vivo at 0.5 mg [1, 14]: 63%; inhibition in vivo at 0.5 mg [1, 15]: 79%; inhibition in vivo at 0.5 mg [1, 16]: 37% |
| CCCC(c1ccc(OCCC2(O)CCN(c3ccc(C#N)c(C(F)(F)F)c3)CC2)cc1)N1CCCC1 (stereo not drawn) [EM-8096] | 7.71 | 6.9% | 50% | 8% | 55% |  |  |  |  |  |  |
